{"source": "patent US20080317863A1", "about": "“Pharmaceutical Compositions Useful in the Transmucosal Administration of Drugs” (priority 2005, published 2008)", "key": {"[1]": {"assay": "Surface area by permeametry", "type": "physicochemical", "settings": "permeametry with Blaine apparatus; mean of three, SD in parentheses", "protocol": "(§1) Particle sizes are shown as median values by weight as measured by laser diffraction analysis (Sympatec Helos […], Germany). […] Surface areas were measured by steady state […] (Johansson et al, Int. […] The results are shown as the mean value from three measurements. The standard deviation is given in parentheses."}, "[2]": {"assay": "Particle size by laser diffraction analysis", "type": "physicochemical", "settings": "median by weight, 10% and 90% undersize limits in parentheses", "protocol": "as §1"}}}
{"compound": "O=C([O-])c1ccccc1O.[Na+]", "note": "[Sodium salicylate, sodium salicylate]", "values": [{"measurement": "Surface Area", "setting": "[1]", "value": "1.77 (0.13) m^2/g"}, {"measurement": "Particle Size", "setting": "[2]", "value": "3.17 (0.8, 10.8) μm"}]}
